From article PMC10648927, “Examining the activity of cefepime-taniborbactam against Burkholderia cepacia complex and Burkholderia gladioli isolated from cystic fibrosis patients in the United States” (Antimicrobial Agents and Chemotherapy, 2023) come the findings set out here.

The structures appear in SMILES notation. In brackets after ≈: the same amount, converted by molar mass.

Holding throughout (set-up): agar dilution MIC, growth inhibition of clinical Burkholderia isolates
One experiment concerns T1, B. ubonensis AU7314.
T1 construct: AU7314
The experiment in a line: organism not typed. From the text:
(§1) We evaluated the activity of cefepime-taniborbactam against a panel of 140 Bcc clinical isolates (i.e., species ambifaria, arboris, cenocepacia, cepacia, contaminans, diffusa, dolosa, multivorans, pseudomultivorans, pyrrocinia, seminalis, stabilis, ubonensis, and vietnamiensis) and 10 B. gladioli from the Burkholderia cepacia Research Laboratory and Repository (University of Michigan) ([22], [25], [31]) (Supplementary Material, Tables S1 and S2). K. pneumoniae ATCC 700603 carrying bla SHV-18 and K. pneumoniae ATCC BAA-1705 harboring bla KPC strains were used as controls for β-lactam and β-lactamase inhibitor integrity; all controls tested within the anticipated quality control ranges (Table S3). Minimum inhibitory concentration (MIC) results were interpreted using Clinical Laboratory Standards Institute (CLSI) breakpoints, where available ([32]). […] An alternative cefepime-taniborbactam provisional susceptible breakpoint of ≤16 µg/mL is supported by in vivo efficacy data from neutropenic murine infection models (thigh, complicated urinary tract, and lung) ([15] [–] [17]) and data from safety and pharmacokinetics studies in human volunteers ([33], [34]). The cefepime-taniborbactam antimicrobial activity was compared to cefepime, meropenem, meropenem-vaborbactam, and levofloxacin, to data published for first-line agents (e.g., ceftazidime and trimethoprim-sulfamethoxazole) and to those recommended by the CLSI for clinical testing (e.g., minocycline) against the Bcc and B. gladioli panel ([22], [32]). Of note, the MICs of all these agents were determined by the agar dilution method, which alongside broth microdilution, are recommended by the CLSI to assess the antimicrobial susceptibility of Bcc isolates ([32]).

In a further experiment the test system is T2, B. vietnamiensis AU21549.
T2 construct: AU21549
In words: microbe, parasite or virus in culture. The note with it: Burkholderia vietnamiensis, AU21549.
Excerpt: as §1

A further experiment deals with T3, B. cenocepacia AU0133.
T3 construct: AU0133
The experiment in a line: microbe, parasite or virus in culture. The note with it: Burkholderia cenocepacia, AU0133.
Excerpt: as §1

The subject of the next experiment is T4, B. cepacia AU19265.
T4 construct: AU19265
In words: microbe, parasite or virus in culture. The following applies: Burkholderia cepacia, AU19265.
Excerpt: as §1

The test system of another experiment is T5, B. dolosa AU9336.
T5 construct: AU9336
In words: microbe, parasite or virus in culture. The note with it: Burkholderia dolosa, AU9336.
Excerpt: as §1

In a further experiment the test system is T6, B. cenocepacia AU13262.
T6 construct: AU13262
The experiment in a line: microbe, parasite or virus in culture. The note with it: Burkholderia cenocepacia, AU13262.
Excerpt: as §1

Another experiment deals with T7, B. vietnamiensis AU19457.
T7 construct: AU19457
The experiment in a line: microbe, parasite or virus in culture. The following applies: Burkholderia vietnamiensis, AU19457.
Excerpt: as §1

A further experiment relates to T8, B. multivorans AU19564.
T8 construct: AU19564
In words: microbe, parasite or virus in culture. The following applies: Burkholderia multivorans, AU19564.
Excerpt: as §1

For a further experiment, the system named is T9, B. multivorans AU23690.
T9 construct: AU23690
The experiment in a line: microbe, parasite or virus in culture. The following applies: Burkholderia multivorans, AU23690.
Excerpt: as §1

The test system of a further experiment is T10, B. multivorans AU23995.
T10 construct: AU23995
In words: microbe, parasite or virus in culture. The following applies: Burkholderia multivorans, AU23995.
Excerpt: as §1

The test system of the next experiment is T11, B. cepacia AU13354.
T11 construct: AU13354
In words: microbe, parasite or virus in culture. The note with it: Burkholderia cepacia, AU13354.
Excerpt: as §1

In the next experiment the test system is T12, B. cepacia AU23707.
T12 construct: AU23707
The experiment in a line: microbe, parasite or virus in culture. The following applies: Burkholderia cepacia, AU23707.
Excerpt: as §1

Another experiment concerns T13, B. stabilis AU10235.
T13 construct: AU10235
In words: microbe, parasite or virus in culture. The note with it: Burkholderia stabilis, AU10235.
Excerpt: as §1

The next experiment has as its system T14, B. cenocepacia AU16448.
T14 construct: AU16448
In words: microbe, parasite or virus in culture. The note with it: Burkholderia cenocepacia, AU16448.
Excerpt: as §1

In another experiment the test system is T15, B. cenocepacia AU19530.
T15 construct: AU19530
The experiment in a line: microbe, parasite or virus in culture. The note with it: Burkholderia cenocepacia, AU19530.
Excerpt: as §1

The subject of another experiment is T16, B. contaminans AU25403.
T16 construct: AU25403
The experiment in a line: organism not typed.
Excerpt: as §1

Another experiment concerns T17, B. multivorans AU10047.
T17 construct: AU10047
In words: microbe, parasite or virus in culture. The following applies: Burkholderia multivorans, AU10047.
Excerpt: as §1

A further experiment concerns T18, B. multivorans AU21596.
T18 construct: AU21596
The experiment in a line: microbe, parasite or virus in culture. The note with it: Burkholderia multivorans, AU21596.
Excerpt: as §1

The next experiment has as its system T19, B. vietnamiensis AU28891.
T19 construct: AU28891
In words: microbe, parasite or virus in culture. The following applies: Burkholderia vietnamiensis, AU28891.
Excerpt: as §1

The subject of the next experiment is T20, B. cepacia AU1555.
T20 construct: AU1555
In words: microbe, parasite or virus in culture. The note with it: Burkholderia cepacia, AU1555.
Excerpt: as §1

For the next experiment, the system named is T21, B. cenocepacia AU22509.
T21 construct: AU22509
In words: microbe, parasite or virus in culture. The note with it: Burkholderia cenocepacia, AU22509.
Excerpt: as §1

The next experiment has as its system T22, B. multivorans AU22892.
T22 construct: AU22892
In words: microbe, parasite or virus in culture. The note with it: Burkholderia multivorans, AU22892.
Excerpt: as §1

Turning to `CO/N=C(\C(=O)N[C@@H]1C(=O)N2C(C(=O)[O-])=C(C[N+]3(C)CCCC3)CS[C@H]12)c1csc(N)n1` [cefepime], the MIC is above 32 µg/mL in the experiment on B. ubonensis AU7314; 2 µg/mL (≈ 4.16 µM) in the experiment on B. vietnamiensis AU21549; 16 µg/mL (≈ 33.3 µM) against B. cenocepacia AU0133; 32 µg/mL (≈ 66.6 µM) against B. cepacia AU19265; above 32 µg/mL in the experiment on B. dolosa AU9336; above 32 µg/mL against B. cenocepacia AU13262. The MIC was above 32 µg/mL in the experiment with B. vietnamiensis AU19457; 16 µg/mL (≈ 33.3 µM) in the experiment with B. multivorans AU19564; 32 µg/mL (≈ 66.6 µM) against B. multivorans AU23690; above 32 µg/mL against B. multivorans AU23995; above 32 µg/mL in the experiment on B. cepacia AU13354; 32 µg/mL (≈ 66.6 µM) in the experiment on B. cepacia AU23707. Also, the MIC against B. stabilis AU10235 is above 32 µg/mL; in the experiment on B. cenocepacia AU16448 it was 16 µg/mL (≈ 33.3 µM); in the experiment with B. cenocepacia AU19530, above 32 µg/mL; against B. contaminans AU25403, 8 µg/mL (≈ 16.6 µM); with B. multivorans AU10047, 32 µg/mL (≈ 66.6 µM); with B. multivorans AU21596, above 32 µg/mL. For the same molecule, the MIC in the experiment with B. vietnamiensis AU28891 was 8 µg/mL (≈ 16.6 µM); in the experiment with B. cepacia AU1555, above 32 µg/mL; against B. cenocepacia AU22509, above 32 µg/mL; in the experiment with B. multivorans AU22892, 2 µg/mL (≈ 4.16 µM).
With `C[C@H]1COc2c(N3CCN(C)CC3)c(F)cc3c(=O)c(C(=O)O)cn1c23` [levofloxacin], the MIC in the experiment with B. ubonensis AU7314 turned out to be 4 µg/mL (≈ 11.1 µM); in the experiment on B. vietnamiensis AU21549, 4 µg/mL (≈ 11.1 µM); with B. cenocepacia AU0133, 4 µg/mL (≈ 11.1 µM); in the experiment with B. cepacia AU19265 it was 4 µg/mL (≈ 11.1 µM); against B. dolosa AU9336, 32 µg/mL (≈ 88.6 µM); in the experiment on B. cenocepacia AU13262 it was 4 µg/mL (≈ 11.1 µM). Moreover, the MIC was 16 µg/mL (≈ 44.3 µM) against B. vietnamiensis AU19457; 8 µg/mL (≈ 22.1 µM) in the experiment with B. multivorans AU19564; above 32 µg/mL in the experiment with B. multivorans AU23690; 4 µg/mL (≈ 11.1 µM) against B. multivorans AU23995; 8 µg/mL (≈ 22.1 µM) in the experiment with B. cepacia AU13354; 32 µg/mL (≈ 88.6 µM) with B. cepacia AU23707. Further, the MIC is 16 µg/mL (≈ 44.3 µM) against B. stabilis AU10235; 8 µg/mL (≈ 22.1 µM) in the experiment on B. cenocepacia AU16448; 16 µg/mL (≈ 44.3 µM) with B. cenocepacia AU19530; 2 µg/mL (≈ 5.53 µM) in the experiment on B. contaminans AU25403; 8 µg/mL (≈ 22.1 µM) with B. multivorans AU10047; above 32 µg/mL with B. multivorans AU21596. Further, the MIC against B. vietnamiensis AU28891 amounted to 8 µg/mL (≈ 22.1 µM); in the experiment on B. cepacia AU1555, 16 µg/mL (≈ 44.3 µM); in the experiment with B. cenocepacia AU22509 it was 32 µg/mL (≈ 88.6 µM); against B. multivorans AU22892, 2 µg/mL (≈ 5.53 µM).
In the case of `C[C@@H](O)[C@H]1C(=O)N2C(C(=O)O)=C(S[C@@H]3CN[C@H](C(=O)N(C)C)C3)[C@H](C)[C@H]12` [meropenem], the MIC with B. ubonensis AU7314 was determined as 32 µg/mL (≈ 83.4 µM); against B. vietnamiensis AU21549, 0.5 µg/mL (≈ 1.3 µM); against B. cenocepacia AU0133, 4 µg/mL (≈ 10.4 µM); against B. cepacia AU19265, 4 µg/mL (≈ 10.4 µM); against B. dolosa AU9336, 8 µg/mL (≈ 20.9 µM); against B. cenocepacia AU13262, 4 µg/mL (≈ 10.4 µM). The MIC amounted to 4 µg/mL (≈ 10.4 µM) against B. vietnamiensis AU19457; 4 µg/mL (≈ 10.4 µM) against B. multivorans AU19564; 4 µg/mL (≈ 10.4 µM) against B. multivorans AU23690; 8 µg/mL (≈ 20.9 µM) in the experiment on B. multivorans AU23995; 8 µg/mL (≈ 20.9 µM) in the experiment on B. cepacia AU13354; 8 µg/mL (≈ 20.9 µM) in the experiment on B. cepacia AU23707. Also, the MIC against B. stabilis AU10235 was found to be 16 µg/mL (≈ 41.7 µM); in the experiment with B. cenocepacia AU16448, 4 µg/mL (≈ 10.4 µM); against B. cenocepacia AU19530, 8 µg/mL (≈ 20.9 µM); against B. contaminans AU25403, 2 µg/mL (≈ 5.22 µM); against B. multivorans AU10047 it was 16 µg/mL (≈ 41.7 µM); against B. multivorans AU21596, 32 µg/mL (≈ 83.4 µM). In addition, the MIC came to 2 µg/mL (≈ 5.22 µM) in the experiment with B. vietnamiensis AU28891, 8 µg/mL (≈ 20.9 µM) in the experiment on B. cepacia AU1555, 8 µg/mL (≈ 20.9 µM) against B. cenocepacia AU22509 and 4 µg/mL (≈ 10.4 µM) against B. multivorans AU22892.
